Measurements taken from patent publication US20210045385A1, “PYRIDAZINONE-SUBSTITUTED KETOXIMES AS HERBICIDES” (FMC Corporation, priority 2018, published 2021).

Columns and labels:
Type in all cases: in vivo
kochia (Kochia scoparia) [1] = experiment: Test A preemergence, visual plant response rating; details: approx. 10 days
Outline: (§1)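 Greenhouse evaluation, approx. 10 days post-spray. Soil: loam + sand. Postemergence stage: 1–2 leaves, height 2–10 cm. Vehicle: non-phytotoxic solvent blend with surfactant. Score: visual injury on a 0 (no effect) to 100 (complete control) scale.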

[2] = system: pigweed (Amaranthus retroflexus); experiment: Test A preemergence, visual plant response rating; details: approx. 10 days
Outline: as §1

[3] = system: foxtail, green (green foxtail, Setaria viridis); experiment: Test A preemergence, visual plant response rating; details: approx. 10 days
Outline: as §1

[4] = system: Italian ryegrass (Lolium multiflorum); experiment: Test A preemergence, visual plant response rating; details: approx. 10 days
Outline: as §1

[5] = system: barnyardgrass (Echinochloa crus-galli); experiment: Test A preemergence, visual plant response rating; details: approx. 10 days
Outline: as §1

[6] = system: ragweed (common ragweed, Ambrosia elatior); experiment: Test A preemergence, visual plant response rating; details: approx. 10 days
Outline: as §1

[7] = system: barnyardgrass (Echinochloa crus-galli); experiment: Test B flooded paddy test, visual plant response rating; details: 250 g ai/ha, Flood, applied to paddy water, 2-leaf stage, evaluated after 13 to 15 days
Outline: (§2)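 At the two-leaf stage, seedlings received compound applied to paddy water flooded 3 cm above soil, a level sustained until assessment. Greenhouse incubation lasted 13 to 15 days before visual comparison with control plants.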

[8] = system: sedge, umbrella (small-flower umbrella sedge, Cyperus difformis); experiment: as above; details: 250 g ai/ha, Flood, applied to paddy water, 2-leaf stage, evaluated after 13 to 15 days
Outline: as §2

[9] = system: ducksalad (Heteranhera limosa); experiment: as above; details: 250 g ai/ha, Flood, applied to paddy water, 2-leaf stage, evaluated after 13 to 15 days
Outline: as §2

rice (Oryza sativa) = experiment: as above; details: 250 g ai/ha, Flood, applied to paddy water, 2-leaf stage, evaluated after 13 to 15 days
Outline: as §2

[10] = system: wheat (Triticum aestivum); experiment: Test A postemergence, visual plant response rating; details: for Wheat plant response rating (0 to 100 scale): 500 g ai/ha, postemergence, 0 is no effect, 100 is complete control; for Wheat plant response rating: Postemergence, 125 g ai/ha, 0 to 100 scale (0 no effect, 100 complete control)
Outline: as §1

kochia (Kochia scoparia) [11] = experiment: Test A postemergence, visual plant response rating; details: for Kochia plant response rating (0 to 100 scale): 500 g ai/ha, postemergence, 0 is no effect, 100 is complete control; for Kochia plant response rating: Postemergence, 125 g ai/ha, 0 to 100 scale (0 no effect, 100 complete control)
Outline: as §1

[12] = system: pigweed (Amaranthus retroflexus); experiment: Test A postemergence, visual plant response rating; details: for Pigweed plant response rating (0 to 100 scale): 500 g ai/ha, postemergence, 0 is no effect, 100 is complete control; for Pigweed plant response rating: Postemergence, 125 g ai/ha, 0 to 100 scale (0 no effect, 100 complete control)
Outline: as §1

[13] = system: foxtail, green (green foxtail, Setaria viridis); experiment: Test A postemergence, visual plant response rating; details: for Foxtail, Green plant response rating (0 to 100 scale): 500 g ai/ha, postemergence, 0 is no effect, 100 is complete control; for Foxtail, Green plant response rating: Postemergence, 125 g ai/ha, 0 to 100 scale (0 no effect, 100 complete control)
Outline: as §1

[14] = system: Italian ryegrass (Lolium multiflorum); experiment: Test A postemergence, visual plant response rating; details: for Ryegrass, Italian plant response rating (0 to 100 scale): 500 g ai/ha, postemergence, 0 is no effect, 100 is complete control; for Ryegrass, Italian plant response rating: Postemergence, 125 g ai/ha, 0 to 100 scale (0 no effect, 100 complete control)
Outline: as §1

[15] = system: blackgrass (Alopecurus myosuroides); experiment: Test A postemergence, visual plant response rating; details: for Blackgrass plant response rating (0 to 100 scale): 500 g ai/ha, postemergence, 0 is no effect, 100 is complete control; for Blackgrass plant response rating: Postemergence, 125 g ai/ha, 0 to 100 scale (0 no effect, 100 complete control)
Outline: as §1

[16] = system: barnyardgrass (Echinochloa crus-galli); experiment: Test A postemergence, visual plant response rating; details: for Barnyardgrass plant response rating (0 to 100 scale): 500 g ai/ha, postemergence, 0 is no effect, 100 is complete control; for Barnyardgrass plant response rating: Postemergence, 125 g ai/ha, 0 to 100 scale (0 no effect, 100 complete control)
Outline: as §1

corn (Zea mays) = experiment: Test A postemergence, visual plant response rating; details: for Corn plant response rating (0 to 100 scale): 500 g ai/ha, postemergence, 0 is no effect, 100 is complete control; for Corn plant response rating: Postemergence, 125 g ai/ha, 0 to 100 scale (0 no effect, 100 complete control)
Outline: as §1

[17] = system: ragweed (common ragweed, Ambrosia elatior); experiment: Test A postemergence, visual plant response rating; details: for Ragweed plant response rating (0 to 100 scale): 500 g ai/ha, postemergence, 0 is no effect, 100 is complete control; for Ragweed plant response rating: Postemergence, 125 g ai/ha, 0 to 100 scale (0 no effect, 100 complete control)
Outline: as §1

Row | SMILES | Kochia plant response rating (0 to 100 scale) (kochia (Kochia scoparia) [1]; 125 g ai/ha Preemergence) | Kochia plant response rating (0 to 100 scale) (kochia (Kochia scoparia) [1]; 500 g ai/ha Preemergence) | Pigweed plant response rating (0 to 100 scale) ([2]; 125 g ai/ha Preemergence) | Pigweed plant response rating (0 to 100 scale) ([2]; 500 g ai/ha Preemergence) | Foxtail, Green plant response rating (0 to 100 scale) ([3]; 125 g ai/ha Preemergence) | Foxtail, Green plant response rating (0 to 100 scale) ([3]; 500 g ai/ha Preemergence) | Ryegrass, Italian plant response rating (0 to 100 scale) ([4]; 125 g ai/ha Preemergence) | Ryegrass, Italian plant response rating (0 to 100 scale) ([4]; 500 g ai/ha Preemergence) | Barnyardgrass plant response rating (0 to 100 scale) ([5]; 125 g ai/ha Preemergence) | Barnyardgrass plant response rating (0 to 100 scale) ([5]; 500 g ai/ha Preemergence) | Ragweed plant response rating (0 to 100 scale) ([6]; 125 g ai/ha Preemergence) | Ragweed plant response rating (0 to 100 scale) ([6]; 500 g ai/ha Preemergence) | Plant response rating, Barnyardgrass (0 to 100 scale, 0 is no effect, 100 is complete control) [7] | Plant response rating, Sedge, Umbrella (0 to 100 scale, 0 is no effect, 100 is complete control) [8] | Plant response rating, Ducksalad (0 to 100 scale, 0 is no effect, 100 is complete control) [9] | Plant response rating, Rice (0 to 100 scale, 0 is no effect, 100 is complete control) (rice (Oryza sativa)) | Wheat plant response rating (0 to 100 scale) [10] | Wheat plant response rating [10] | Kochia plant response rating (0 to 100 scale) (kochia (Kochia scoparia) [11]) | Kochia plant response rating (kochia (Kochia scoparia) [11]) | also measured
1 | CO/N=C(\c1cccc(Cl)c1)c1c(O)c(C)nn(C)c1=O [Compound 10, 4-[(E)-(3-chlorophenyl)(methoxyimino)methyl]-5-hydroxy-2,6-dimethyl-3(2H)-pyridazinone] | 30 | 90 | 20 | 100 | 20 | 20 | 30 | 90 | 0 | 10 | 70 | 90 | 0 | 0 | 0 | 0 | 20 | 0 | 80 | 70 | Pigweed plant response rating (0 to 100 scale) [12]: 60; Pigweed plant response rating [12]: 20; Foxtail, Green plant response rating (0 to 100 scale) [13]: 20; Foxtail, Green plant response rating [13]: 0; Ryegrass, Italian plant response rating (0 to 100 scale) [14]: 90; Ryegrass, Italian plant response rating [14]: 60; Blackgrass plant response rating (0 to 100 scale) [15]: 30; Blackgrass plant response rating [15]: 10; Barnyardgrass plant response rating (0 to 100 scale) [16]: 10; Barnyardgrass plant response rating [16]: 0; Corn plant response rating (0 to 100 scale) (corn (Zea mays)): 0; Corn plant response rating (corn (Zea mays)): 0; Ragweed plant response rating (0 to 100 scale) [17]: 100; Ragweed plant response rating [17]: 90
2 | CO/N=C(/c1cccc(Cl)c1)c1c(O)c(C)nn(C)c1=O [Compound 11, 4-[(Z)-(3-chlorophenyl)(methoxyimino)methyl]-5-hydroxy-2,6-dimethyl-3(2H)-pyridazinone] | 10 | 80 | 40 | 100 | 0 | 70 | 60 | 80 | 0 | 40 | 50 | 50 | 0 | 0 | 0 | 0 | 10 | 0 | 80 | 70 | Pigweed plant response rating (0 to 100 scale) [12]: 80; Pigweed plant response rating [12]: 40; Foxtail, Green plant response rating (0 to 100 scale) [13]: 40; Foxtail, Green plant response rating [13]: 10; Ryegrass, Italian plant response rating (0 to 100 scale) [14]: 80; Ryegrass, Italian plant response rating [14]: 60; Blackgrass plant response rating (0 to 100 scale) [15]: 70; Blackgrass plant response rating [15]: 30; Barnyardgrass plant response rating (0 to 100 scale) [16]: 10; Barnyardgrass plant response rating [16]: 10; Corn plant response rating (0 to 100 scale) (corn (Zea mays)): 10; Corn plant response rating (corn (Zea mays)): 0; Ragweed plant response rating (0 to 100 scale) [17]: 100; Ragweed plant response rating [17]: 80
